target: T1, recombinant human GST-SYK (Homo sapiens, UniProt P43405); test: Homogeneous Time-Resolved Fluorescence (HTRF) assay for the recombinant human Syk enzyme; type: biochemical; details: HTRF assay, recombinant human GST-SYK; IC50 given as class symbols; read-out: rhSYK Activity
T1 construct: purchased Carna Biosciences 08-176
Summary of the method: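 Phosphotyrosine product from a biotinylated Syk substrate peptide was detected by HTRF (europium antibody/SA-APC, read after 30 min) following a 45-minute room-temperature reaction at 25 μM ATP, with […] preincubated 10 minutes with inhibitor.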

SMILES | IC50
Cc1cc(Nc2nccc(C(F)(F)F)n2)cc(-c2cnc3c(c2)CCN3)c1 [Example 2.47, N-[3-(2,3-dihydro-1H-pyrrolo[2,3-b]pyridin-5-yl)-5-methylphenyl]-4-(trifluoromethyl)pyrimidin-2-amine] | < 100 nM
Cc1cc(Nc2nccc(C(F)(F)F)n2)cc(-c2ccc(N3CC(C(=O)O)C3)nc2)c1 [Example 7.133, 1-[5-(3-methyl-5-{[4-(trifluoromethyl)pyrimidin-2-yl]amino}phenyl)pyridin-2-yl]azetidine-3-carboxylic acid] | < 100 nM
Cc1cc(Nc2nccc(C(F)(F)F)n2)cc(-c2ccc(N[C@H]3CC[C@H](C(=O)O)CC3)nc2)c1 [Example 7.143, trans-4-{[5-(3-methyl-5-{[4-(trifluoromethyl)pyrimidin-2-yl]amino}phenyl)pyridin-2-yl]amino}cyclohexanecarboxylic acid] | < 100 nM
Cc1cc(Nc2nccc(C(F)(F)F)n2)cc(-c2ccc(N[C@H](C)C(=O)O)nc2)c1 [Example 7.154, N-[5-(3-methyl-5-{[4-(trifluoromethyl)pyrimidin-2-yl]amino}phenyl)pyridin-2-yl]-D-alanine] | < 100 nM
Cc1cc(Nc2nccc(C(F)(F)F)n2)cc(-c2ccc(CCc3noc(=O)[nH]3)nc2)c1 [Example 13.5, 3-{2-[5-(3-Methyl-5-{[4-(trifluoromethyl)pyrimidin-2-yl]amino}phenyl)pyridin-2-yl]ethyl}-1,2,4-oxadiazol-5(4H)-one] | < 100 nM
Cc1cc(Nc2nccc(C(F)(F)F)n2)cc(-c2ccc(S(=O)(=O)NC3CC3)nc2)c1 [Example 21.2, N-cyclopropyl-5-(3-methyl-5-{[4-(trifluoromethyl)pyrimidin-2-yl]amino}phenyl)pyridine-2-sulfonamide] | 100 to 1000 nM
Cc1cc(Nc2nccc(C(F)(F)F)n2)cc(-c2ccc(NC3CCNC3=O)nc2)c1 (stereo not shown) [Example 7.68, 3-{[5-(3-methyl-5-{[4-(trifluoromethyl)pyrimidin-2-yl]amino}phenyl)pyridin-2-yl]amino}pyrrolidin-2-one] | < 100 nM
CCOC(=O)CCc1cncc(-c2cc(C)cc(Nc3nccc(C)n3)c2)c1 [Example 2.88, ethyl 3-(5-{3-methyl-5-[(4-methylpyrimidin-2-yl)amino]phenyl}pyridin-3-yl)propanoate] | 100 to 1000 nM
CNC(=O)C1CCCN1c1cc(-c2cc(C)cc(Nc3nccc(C(F)(F)F)n3)c2)ccn1 (racemic) [Example 15.81, N-methyl-1-[4-(3-methyl-5-{[4-(trifluoromethyl)pyrimidin-2-yl]amino}phenyl)pyridin-2-yl]prolinamide] | 100 to 1000 nM
Cc1cc(Nc2nccc(C(F)(F)F)n2)cc(-c2ccc(Oc3ccc(C(=O)O)cc3)nc2)c1 [Example 2.112, 4-{[5-(3-methyl-5-{[4-(trifluoromethyl)pyrimidin-2-yl]amino}phenyl)pyridin-2-yl]oxy}benzoic acid] | < 100 nM
Cc1cc(Nc2nccc(C(F)(F)F)n2)cc(-c2ccnc(N[C@@H]3CCC(=O)NC3)c2)c1 [Example 15.66, (5R)-5-{[4-(3-methyl-5-{[4-(trifluoromethyl)pyrimidin-2-yl]amino}phenyl)pyridin-2-yl]amino}piperidin-2-one] | < 100 nM
Cc1cc(Nc2nccc(C(F)(F)F)n2)cc(-c2cnc(N(C)C)c(C(=O)O)c2)c1 [Example 2.72, 2-(dimethylamino)-5-(3-methyl-5-{[4-(trifluoromethyl)pyrimidin-2-yl]amino}phenyl)pyridine-3-carboxylic acid] | < 100 nM
Cc1cc(Nc2nccc(C(F)(F)F)n2)cc(-c2cncc(C(=O)O)c2)c1 [Example 2.69, 5-(3-methyl-5-{[4-(trifluoromethyl)pyrimidin-2-yl]amino}phenyl)pyridine-3-carboxylic acid] | < 100 nM
Cc1cc(Nc2nccc(C(F)(F)F)n2)cc(-c2ccnc(N3CCC4(CCN(C)C4=O)CC3)c2)c1 [Example 15.31, 2-methyl-8-[4-(3-methyl-5-{[4-(trifluoromethyl)pyrimidin-2-yl]amino}phenyl)pyridin-2-yl]-2,8-diazaspiro[4.5]decan-1-one] | 100 to 1000 nM
Cc1cc(Nc2nccc(C(F)(F)F)n2)cc(-c2ccc(N3CCCC3C(N)=O)nc2)c1 (racemic) [Example 7.38, 1-[5-(3-methyl-5-{[4-(trifluoromethyl)pyrimidin-2-yl]amino}phenyl)pyridin-2-yl]prolinamide] | < 100 nM
Cc1cc(Nc2nccc(C(F)(F)F)n2)cc(-c2ccc(N3CCCC[C@H]3C(=O)O)nc2)c1 [Example 7.120, (2S)-1-[5-(3-methyl-5-{[4-(trifluoromethyl)pyrimidin-2-yl]amino}phenyl)pyridin-2-yl]piperidine-2-carboxylic acid] | < 100 nM
Cc1cc(Nc2nccc(C(F)(F)F)n2)cc(-c2ccnc(C3(O)CCC(=O)CC3)c2)c1 [Example 9.2, 4-Hydroxy-4-[4-(3-methyl-5-{[4-(trifluoromethyl)pyrimidin-2-yl]amino}phenyl)pyridin-2-yl]cyclohexanone] | < 100 nM
Cc1cc(Nc2nccc(C(F)(F)F)n2)cc(-c2ccnc(N3CCNCC3)c2)c1 [Example 2.126, N-[3-methyl-5-(2-piperazin-1-ylpyridin-4-yl)phenyl]-4-(trifluoromethyl)pyrimidin-2-amine] | < 100 nM
Cc1cc(Nc2nccc(C(F)(F)F)n2)cc(-c2ccc(NC(C)(C)CO)nc2)c1 [Example 7.35, 2-methyl-2-{[5-(3-methyl-5-{[4-(trifluoromethyl)pyrimidin-2-yl]amino}phenyl)pyridin-2-yl]amino}propan-1-ol] | 100 to 1000 nM
CCCN1CCCN(c2cc(-c3cc(C)cc(Nc4nccc(C(F)(F)F)n4)c3)ccn2)CC1 [Example 15.76, N-{3-methyl-5-[2-(4-propyl-1,4-diazepan-1-yl)pyridin-4-yl]phenyl}-4-(trifluoromethyl)pyrimidin-2-amine] | < 100 nM
CC(=O)Nc1cc(Nc2nccc(C(F)(F)F)n2)cc(-c2ccc(N3CCNC(=O)C3)nc2)c1 [Example 7.5, N-(3-[6-(3-oxopiperazin-1-yl)pyridin-3-yl]-5-{[4-(trifluoromethyl)pyrimidin-2-yl]amino}phenyl)acetamide] | < 100 nM
COc1ccnc(Nc2cc(C)cc(-c3cncc(CCC(=O)O)c3)c2)n1 [Example 2.84, 3-(5-{3-[(4-methoxypyrimidin-2-yl)amino]-5-methylphenyl}pyridin-3-yl)propanoic acid] | < 100 nM
Cc1cc(Nc2nccc(C(F)(F)F)n2)cc(-c2cncc(C3(O)COC(C)(C)OC3)c2)c1 [Example 9.78, 2,2-dimethyl-5-[5-(3-methyl-5-{[4-(trifluoromethyl)pyrimidin-2-yl]amino}phenyl)pyridin-3-yl]-1,3-dioxan-5-ol] | 100 to 1000 nM
COCC1CN(C(=O)c2ccc(-c3cc(C)cc(Nc4nccc(C(F)(F)F)n4)c3)cn2)CCO1 (stereo not shown) [Example 16.39, N-[3-(6-{[2-(methoxymethyl)morpholin-4-yl]carbonyl}pyridin-3-yl)-5-methylphenyl]-4-(trifluoromethyl)pyrimidin-2-amine] | < 100 nM
Cc1cc(Nc2ncc(F)c(C3CC3)n2)cc(-c2ccc(NC3CCNC3=O)nc2)c1 (stereo not shown) [Example 7.158, 3-[(5-{3-[(4-cyclopropyl-5-fluoropyrimidin-2-yl)amino]-5-methylphenyl}pyridin-2-yl)amino]pyrrolidin-2-one] | < 100 nM

— patent US9376418B2, “Substituted pyridine spleen tyrosine kinase (SYK) inhibitors” (Merck Sharp & Dohme Corp., priority 2012, dated 2016)
